Consider 48 compounds from patent US10807959B2, “WDR5-MLL1 inhibitors and modulators” (Vanderbilt University, priority 2018, dated 2020).

Broadly, the Ki is the equilibrium dissociation constant of an inhibitor or competing ligand from its target. Lower therefore signals a stronger hold on the target.

The first assay addresses T1, WDR5 (Homo sapiens (Human), UniProt P61964). Nature of the assay: Fluorescence polarization anisotropy (FPA) competition assay, displacement of FITC-MLL or 10mer-Thr-FAM peptide. Particulars: Inhibition of WDR5 by FPA assay. The assay is classed as binding. The text has this: The assay is run in 384-well format and is read on a BioTek Cytation. […] Replicate values are fit to a 4-parameter fit in XLFit to generate a single IC50 value for each compound that is then converted to a Ki value. Experiments are repeated to generate a 2nd, independent Ki value; values from the two experiments are averaged to produce the reported Ki value for the compound.
On the technique in general: Polarisation of emitted light reports the rotation of a fluorescent probe.
For `Cc1nc(F)ccc1-c1cc(Cn2ccnc2)cc(C(=O)NC(C2CC2)C2CC2)c1` [Example 133, 3-((1H-imidazol-1-yl)methyl)-N-(dicyclopropylmethyl)-5-(6-fluoro-2-methylpyridin-3-yl)benzamide], the affinity corresponds to a Ki of 3.5 nM.
Still for that read-out and setting: under `CCC(NC(=O)c1cc(Cn2ccnc2)cc(-c2ccc(F)cc2Cl)n1)C1CC1` (stereo not shown) [Example 152, 4-((1H-Imidazol-1-yl)methyl)-6-(2-chloro-4-fluorophenyl)-N-(1-cyclopropylpropyl)picolinamide] stands 13.1 nM; under `Cc1ccnc(C(NC(=O)c2cc(Cn3ccnc3)cc(-c3ccc(F)nc3C)c2)C2CC2)c1` (stereo not shown) [Example 137, 3-((1H-Imidazol-1-yl)methyl)-N-(cyclopropyl(4-methylpyridin-2-yl)methyl)-5-(6-fluoro-2-methylpyridin-3-yl)benzamide], under 1 nM; under `O=C(NCc1cc(Cl)cc(Cl)c1)c1cc(Cl)cc(Cn2ccnc2)c1` [Example 110, 3-((1H-Imidazol-1-yl)methyl)-5-chloro-N-(3,5-dichlorobenzyl)benzamide], 33.7 nM.
On the same count and under the same terms, in the case of `Cc1cc(-c2cc(Cn3ccnc3)cc(C(=O)NCc3ccc(Cl)c(Cl)c3)c2)ccn1` [Example 123, 3-((1H-Imidazol-1-yl)methyl)-N-(3,4-dichlorobenzyl)-5-(2-methylpyridin-4-yl)benzamide] it was 8.7 nM; in that of `Cc1cc(C)cc(CNC(=O)c2cc(Cn3ccnc3)cc(-c3ccc(F)cc3Cl)n2)c1` [Example 153, 4-((1H-Imidazol-1-yl)methyl)-6-(2-chloro-4-fluorophenyl)-N-(3,5-dimethylbenzyl)picolinamide], 4.8 nM; in that of `Cc1nc(F)ccc1-c1cc(Cn2ccnc2)cc(C(=O)NC(C)C2CCCCC2)c1` (stereo not shown) [Example 132, 3-((1H-Imidazol-1-yl)methyl)-N-(1-cyclohexylethyl)-5-(6-fluoro-2-methylpyridin-3-yl)benzamide], 3.9 nM.
With `COc1cc(CNC(=O)c2cc(Cn3ccnc3)cc(Oc3ccccc3)c2)cc(OC)c1` [Example 120, 3-((1H-imidazol-1-yl)methyl)-N-(3,5-dimethoxybenzyl)-5-phenoxybenzamide], the affinity, expressed as Ki, was 5.1 nM.
`O=C(NC(C1CC1)C1CC1)c1cc(CNC2=NCCN2)cc(-c2ccc(F)cc2Cl)c1` [Example 2, 2′-Chloro-N-(dicyclopropylmethyl)-5-(((4,5-dihydro-1H-imidazol-2-yl)amino)methyl)-4′-fluoro-[1,1′-biphenyl]-3-carboxamide] had a Ki of 6 nM.
`Cc1cccc(CNC(=O)c2cc(Cn3ccnc3)cc(-c3ccc(F)cc3Cl)n2)n1` [Example 151, 4-((1H-Imidazol-1-yl)methyl)-6-(2-chloro-4-fluorophenyl)-N-((6-methylpyridin-2-yl)methyl)picolinamide]: the Ki stood at 8.7 nM. This Ki and that of the compound before are within 1.5-fold of each other.
Still for that read-out and setting: in the case of `COc1cc(OC)cc(C(C)NC(=O)c2cc(Cn3ccnc3)cc(-c3ccc(F)cc3Cl)n2)c1` (stereo not shown) [Example 154, 4-((1H-Imidazol-1-yl)methyl)-6-(2-chloro-4-fluorophenyl)-N-(1-(3,5-dimethoxyphenyl)ethyl)picolinamide] it was 5.1 nM; in that of `Cc1ccnc(C(NC(=O)c2cc(Cn3ccnc3)cc(-c3ccc(F)cc3Cl)n2)C2CC2)c1` (stereo not shown) [Example 150, 4-((1H-Imidazol-1-yl)methyl)-6-(2-chloro-4-fluorophenyl)-N-(cyclopropyl(4-methylpyridin-2-yl)methyl)picolinamide], 1.1 nM.

Staying with this assay, now noted: Table B2, WDR5 WIN-site binding affinity; values not less than 1 nM (FPA).
The compound `O=C(NCc1ccc(Cl)c(Cl)c1)c1cc(CNC2=NCCN2)cc(-c2ccc(F)cc2Cl)c1` [Example B54] had a Ki of 1.12 nM.
Same read-out and setting: under `O=C(NCc1ccc(Cl)c(Cl)c1)c1cccc(CNC2=NCCN2)c1` [Example B3] stands 209 nM.
Same read-out and setting: in the case of `COc1ccnc(CNC(=O)c2ccc(OC)c(CNC3=NCCN3)c2)c1` [Example B40] it was 7.21 nM; in that of `COc1ccc(C(=O)NCc2ccc(Cl)c(C)c2)cc1CNC1=NCCN1` [Example B42], 1.51 nM.
In turn, `CC(C)N(Cc1cccc(Cl)c1)C(=O)c1cccc(CNC2=NCCN2)c1` [Example B2] displayed a Ki of 400 nM.
On the same count and under the same terms, in the case of `O=C(NCc1cc(Cl)ccn1)c1ccc(F)c(CNC2=NCCN2)c1` [Example B16] it was 9.05 nM; in that of `COc1cc(CN(C)C(=O)c2ccc(F)c(CNC3=NCCN3)c2)cc(OC)c1` [Example B24], 49.8 nM; in that of `COc1cc(OC)cc(C(C)NC(=O)c2ccc(F)c(CNC3=NCCN3)c2)c1` (stereo not shown) [Example B18], 1.81 nM.
Take `COc1ccc(C(=O)NCc2ccc(Cl)c(F)c2)cc1CNC1=NCCN1` [Example B41]: the Ki was found to be 1.76 nM.
For `Cc1cc(CNC(=O)c2cccc(CNC3=NCCN3)c2)ccc1Cl` [Example B4], the Ki was 11.9 nM.
On the same count and under the same terms, under `COc1cccc(CNC(=O)c2ccc(F)c(CNC3=NCCN3)c2)n1` [Example B25] stands 74.2 nM; under `COc1ccc(CNC(=O)c2ccc(F)c(CNC3=NCCN3)c2)cc1OC` [Example B19], 8.06 nM; under `COc1cc(OC)cc(C(C)NC(=O)c2ccc(OC)c(CNC3=NCCN3)c2)c1` (stereo not shown) [Example B43], 1.82 nM.
Same read-out and setting: under `CC(C)Oc1ccc(C(=O)NCc2ccc(Cl)c(Cl)c2)cc1CNC1=NCCC1` [Example B125] stands over 33 nM.
The same measure, in the same setting: under `COc1ccc(C(=O)NCc2ccc(F)c(CNC3=NCCN3)c2)cc1Cl` [Example B26] stands 3.24 nM; under `Cc1ccnc(C(NC(=O)c2cc(CNC3=NCCN3)c(F)cc2F)C2CC2)c1` (stereo not shown) [Example B48], 2.17 nM.
In the case of `COc1cc(CNC(=O)c2ccc(OC)c(CNC3=NCCN3)c2)cc(OC)c1` [Example B27, 3-(((4,5-dihydro-1H-imidazol-2-yl)amino)methyl)-N-(3,5-dimethoxybenzyl)-4-methoxybenzamide], the affinity, expressed as Ki, was 7.52 nM. This Ki lies about 3.5-fold higher than the previous one.
Same read-out and setting: under “3-(((4,5-dihydro-1H-imidazol-2-yl)amino)methyl)-N-(3,5-dimethoxybenzyl)-4,5-difluorobenzamide [Example B30]” stands 5.32 nM; under `COc1ccnc(CNC(=O)c2cc(F)c(F)c(CNC3=NCCN3)c2)c1` [Example B34], 12 nM.
The same measure, in the same setting: under `O=C(NCc1ccc(Cl)cn1)c1ccc(F)c(CNC2=NCCN2)c1` [Example B23] stands 30.3 nM; under `COc1ccc(C(=O)NCc2cc(Cl)ccn2)cc1CNC1=NCCN1` [Example B39], 1.39 nM.
On the same count and under the same terms, under `Cc1cc(CNC(=O)c2cc(CNC3=NCCN3)cc(-c3ccc(F)cc3Cl)c2)ccc1Cl` [Example B58] stands 2.06 nM; under `Cc1cc(-c2cc(CNC3=NCCN3)cc(C(=O)NCc3cccc(F)n3)c2)ccn1` [Example B95], 6.1 nM; under `Cc1ccc(CNC(=O)c2cc(Cl)cc(CNC3=NCCN3)c2)cc1Cl` [Example B10], 54.5 nM.
Turning to `COc1ccnc(CNC(=O)c2ccc(F)c(CNC3=NCCN3)c2)c1` [Example B22], the Ki was 1.5 nM.
Still for that read-out and setting: in the case of `COc1cc(OC)cc(C(C)NC(=O)c2ccc(OC(C)C)c(CNC3=NCCC3)c2)c1` (stereo not shown) [Example B124] it was over 33 nM; in that of `COc1cc(CNC(=O)c2cc(CNC3=NCCN3)ccc2F)cc(OC)c1` [Example B37], 8.71 nM.
`Cc1cc(C)cc(CNC(=O)c2cc(Cl)cc(CNC3=NCCN3)c2)c1` [Example B11] had a Ki of 46 nM.
The same measure, in the same setting: in the case of `COc1ccc(CNC(=O)c2cc(F)c(F)c(CNC3=NCCN3)c2)cc1Cl` [Example B32] it was 4.51 nM.

The same assay, now with this note: Table C2, WDR5 WIN-site binding affinity; values not less than 1 nM (FPA).
As for `COc1cc(OC)cc(C(C)NC(=O)c2cc(CNC3=NCCC3)ccn2)c1` (stereo not shown) [Example C21, 4-(((3,4-dihydro-2H-pyrrol-5-yl)amino)methyl)-N-(1-(3,5-dimethoxyphenyl)ethyl)picolinamide], the affinity, expressed as Ki, was 33 nM.
In turn, `COc1cc(CNC(=O)c2cc(CNC3=NCCC3)cc(-c3ccc(F)cc3C)n2)cc(OC)c1` [Example C24] returned a Ki of 11.7 nM.
Regarding `COc1cc(OC)cc(C(C)NC(=O)c2ccnc(CNC3=NCCN3)c2)c1` (stereo not shown) [Example C34, 2-(((4,5-dihydro-1H-imidazol-2-yl)amino)methyl)-N-(1-(3,5-dimethoxyphenyl)ethyl)isonicotinamide], the Ki worked out at 32.5 nM.
Still for that read-out and setting: in the case of `Cc1cc(CNC(=O)c2cc(CNC3=NCCC3)cc(-c3ccc(F)cc3C)n2)ccc1Cl` [Example C23] it was 3.13 nM; in that of `COc1cc(OC)cc(C(C)NC(=O)c2ccnc(CNC3=NCCC3)c2)c1` (stereo not shown) [Example C35, 2-(((3,4-dihydro-2H-pyrrol-5-yl)amino)methyl)-N-(1-(3,5-dimethoxyphenyl)ethyl)isonicotinamide], 44.1 nM; in that of `COc1cc(OC)cc(C(C)NC(=O)c2cc(CNC3=NCCN3)ccn2)c1` (stereo not shown) [Example C20, 4-(((4,5-dihydro-1H-imidazol-2-yl)amino)methyl)-N-(1-(3,5-dimethoxyphenyl)ethyl)picolinamide], 30.3 nM.
Regarding `COc1cc(CNC(=O)c2cc(CNC3=NCCC3)cc(-c3ccc(F)cc3C(F)(F)F)n2)cc(OC)c1` [Example C27], the Ki amounted to 1.58 nM.

For a further assay, the target named is T1, WDR5. Nature of the assay: TR-FRET binding assay, displacement of 10mer-Thr-FAM probe from His-tagged WDR5. Particulars: Inhibition of WDR5 by TR-FRET assay. The procedure:
The LanthaScreenTM Elite Tb-anti-HIS Antibody from ThermoFisher Scientific was used for this purpose. […] The ratio of the 520 and 495 signals are then utilized to generate a dose-response curve to calculate an IC50 value. […] WDR[…] tag protein is used at 2 nM.
Compound `Cc1nc(F)ccc1-c1cc(Cn2ccnc2)cc(C(=O)NC(C2CC2)C2CC2)c1` [Example 133, 3-((1H-imidazol-1-yl)methyl)-N-(dicyclopropylmethyl)-5-(6-fluoro-2-methylpyridin-3-yl)benzamide] had a Ki of 4.6 nM.
With `Cc1ccnc(C(NC(=O)c2cc(Cn3ccnc3)cc(-c3ccc(F)nc3C)c2)C2CC2)c1` (stereo not shown) [Example 137, 3-((1H-Imidazol-1-yl)methyl)-N-(cyclopropyl(4-methylpyridin-2-yl)methyl)-5-(6-fluoro-2-methylpyridin-3-yl)benzamide], the Ki stood at 2 nM.
Same read-out and setting: in the case of `Cc1cccc(CNC(=O)c2cc(Cn3ccnc3)cc(-c3ccc(F)cc3Cl)n2)n1` [Example 151, 4-((1H-Imidazol-1-yl)methyl)-6-(2-chloro-4-fluorophenyl)-N-((6-methylpyridin-2-yl)methyl)picolinamide] it was 32 nM; in that of `Cc1ccnc(C(NC(=O)c2cc(Cn3ccnc3)cc(-c3ccc(F)cc3Cl)n2)C2CC2)c1` (stereo not shown) [Example 150, 4-((1H-Imidazol-1-yl)methyl)-6-(2-chloro-4-fluorophenyl)-N-(cyclopropyl(4-methylpyridin-2-yl)methyl)picolinamide], 5.71 nM.
